Data reported in US20220089575A1, “FARNESOID X RECEPTOR AGONISTS AND USES THEREOF” (Metacrine, Inc., priority 2017, published 2022).

Each compound was assayed against T1, hFXR (Homo sapiens, UniProt Q96RI1) (assay: In Vitro FXR Assay (TK): TK-ECRE-luc reporter in transfected CV-1 cells). Settings: 18 hrs, luminescence, maximum efficacy of <25% of the Fexarmine control classified as '+'.
T1 construct: expressed in transfected cells; host or cells: CV-1 cells
T1 sequence (Q96RI1 1-486): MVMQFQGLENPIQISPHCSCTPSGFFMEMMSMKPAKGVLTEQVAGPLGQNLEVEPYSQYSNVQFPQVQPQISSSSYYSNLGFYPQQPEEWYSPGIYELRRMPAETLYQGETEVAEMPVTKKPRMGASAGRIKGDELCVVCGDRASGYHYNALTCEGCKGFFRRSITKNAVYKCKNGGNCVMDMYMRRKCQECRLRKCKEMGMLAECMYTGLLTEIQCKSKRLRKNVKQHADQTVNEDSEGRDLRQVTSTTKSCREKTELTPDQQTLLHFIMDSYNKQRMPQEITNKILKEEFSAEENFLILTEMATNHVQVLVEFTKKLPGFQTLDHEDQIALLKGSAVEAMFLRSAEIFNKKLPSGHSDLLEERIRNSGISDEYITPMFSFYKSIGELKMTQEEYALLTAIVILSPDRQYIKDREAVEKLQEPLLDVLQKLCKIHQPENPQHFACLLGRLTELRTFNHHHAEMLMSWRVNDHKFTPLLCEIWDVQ
T1 sequence (P19793 1-462 partner): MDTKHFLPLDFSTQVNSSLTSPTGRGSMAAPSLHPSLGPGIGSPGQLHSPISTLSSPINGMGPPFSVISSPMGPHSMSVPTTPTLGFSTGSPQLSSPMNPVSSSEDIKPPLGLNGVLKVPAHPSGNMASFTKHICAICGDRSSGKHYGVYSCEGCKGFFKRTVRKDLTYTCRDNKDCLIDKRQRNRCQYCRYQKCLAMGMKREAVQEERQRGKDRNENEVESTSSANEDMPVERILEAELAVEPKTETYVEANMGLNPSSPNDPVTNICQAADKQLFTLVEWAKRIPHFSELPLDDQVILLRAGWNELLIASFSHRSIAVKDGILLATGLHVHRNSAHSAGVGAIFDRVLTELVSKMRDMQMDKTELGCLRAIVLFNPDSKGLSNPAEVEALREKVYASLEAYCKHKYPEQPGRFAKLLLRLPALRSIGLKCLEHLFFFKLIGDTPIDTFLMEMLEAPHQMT
Format: cell-based
In short: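 Transiently transfected monkey CV-1 cells (hFXR, hRXR, TK-ECRE-luciferase, YFP control plasmid), held in stripped-serum DMEM, received compound dilutions from DMSO for 18 h at 37 °C. Activity was taken from luminescence of the cell lysates.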

Row | Compound | EC50 [nM]
1 | COCCOC1CN(C(=O)O[C@H]2CC[C@H](C(=O)N(C[C@H]3CC[C@H](c4ccc(OC)c(C)n4)CC3)c3cc(-c4coc(C5CC5)n4)ccn3)CC2)C1 [Compound 7.95, trans-4-((4-(2-Cyclopropyloxazol-4-yl)pyridine-2-yl)((trans-4-(5-methoxy-6-methylpyridin-2-yl)cyclohexyl)methyl)carbamoyl)cyclohexyl 3-(2-methoxyethoxy)azetidine-1-carboxylate] | ≤ 250
2 | COc1ccc([C@H]2CC[C@H](CN(c3cc(-c4coc(C5CC5)n4)ccn3)C(=O)[C@H]3CC[C@H](OC(=O)N4CC(N(C)C)C4)CC3)CC2)cc1C [Compound 7.81, trans-4-((4-(2-Cyclopropyloxazol-4-yl)pyridine-2-yl)((trans-4-(4-methoxy-3-methylphenyl)cyclohexyl)methyl)carbamoyl)cyclohexyl 3-(dimethylamino)azetidine-1-carboxylate] | ≤ 250
3 | COc1ccc([C@H]2CC[C@H](CN(c3cc(-c4coc(C5CC5)n4)ccn3)C(=O)[C@H]3CC[C@H](CNC(=O)CO)CC3)CC2)nc1C [Compound 26.29, trans-N-(4-(2-Cyclopropyloxazol-4-yl)pyridin-2-yl)-4-((2-hydroxyacetamido)methyl)-N-((trans-4-(5-methoxy-6-methylpyridin-2-yl)cyclohexyl)methyl) cyclohexanecarboxamide] | 250 to 1000
4 | COc1ccc([C@H]2CC[C@H](CN(c3cc(-c4coc(C5CC5)n4)ccn3)C(=O)[C@H]3CC[C@H](OC(=O)NC(C)CO)CC3)CC2)nc1C (stereo partly drawn) [Compound 6.71, trans-4-((4-(2-Cyclopropyloxazol-4-yl)pyridin-2-yl)((trans-4-(5-methoxy-6-methylpyridin-2-yl)cyclohexyl)methyl)carbamoyl)cyclohexyl (1-hydroxypropan-2-yl)carbamate] | ≤ 250
5 | COc1ccc([C@H]2CC[C@H](CN(c3cccc(-c4coc(C5CC5)n4)c3)C(=O)[C@H]3CC[C@H](OC(=O)NCCO)CC3)CC2)nc1C [Compound 6.50, trans-4-((3-(2-Cyclopropyloxazol-4-yl)phenyl)((trans-4-(5-methoxy-6-methylpyridin-2-yl)cyclohexyl)methyl)carbamoyl)cyclohexyl (2-hydroxyethyl)carbamate] | ≤ 250
6 | COc1ccc([C@H]2CC[C@H](CN(c3cccc(-c4cnc(C5CC5)s4)c3)C(=O)[C@H]3CC[C@H](CC(=O)O)CC3)CC2)cc1C#N [Compound 20, 2-(trans-4-(((trans-4-(3-Cyano-4-methoxyphenyl)cyclohexyl)methyl)(3-(2-cyclopropylthiazol-5-yl)phenyl)carbamoyl)cyclohexyl)acetic acid] | ≤ 250
7 | COc1ccc([C@H]2CC[C@H](CN(c3cc(-c4coc(C5CC5)n4)ccn3)C(=O)[C@H]3CC[C@H](NC(=O)C4CCC4)CC3)CC2)nc1C [Compound 30.02, trans-4-(cyclobutanecarboxamido)-trans-(4-(2-cyclopropyloxazol-4-yl)pyridine-2-yl)-N-((trans-4-(5-methoxy-6-methylpyridin-2-yl)cyclohexyl)methyl) cyclohexanecarboxamide] | ≤ 250
8 | CCOC(=O)NC[C@H]1CC[C@H](C(=O)N(C[C@H]2CC[C@H](c3ccc(OC)c(C)n3)CC2)c2cc(-c3coc(C4CC4)n3)ccn2)CC1 [Compound 26.28] | ≤ 250

Further lines, results first:

Row | EC50 [nM] | Compound
9 | ≤ 250 | COc1ccc([C@H]2CC[C@H](CN(c3cc(-c4cnn(C5CC5)c4)ccn3)C(=O)[C@H]3CC[C@H](NC(C)=O)CC3)CC2)cc1C [Compound 26.30, trans-4-Acetamido-N-(4-(1-cyclopropyl-1H-pyrazol-4-yl)pyridin-2-yl)-N-((trans-4-(4-methoxy-3-methylphenyl)cyclohexyl)methyl) cyclohexanecarboxamide]
10 | ≤ 250 | COc1ccc([C@H]2CC[C@H](CN(c3cc(-c4cnn(C(C)C)c4)ccn3)C(=O)[C@H]3CC[C@H](OC(=O)N4CC(S(C)(=O)=O)C4)CC3)CC2)cc1C#N [Compound 6.36, trans-4-(((trans-4-(3-Cyano-4-methoxyphenyl)cyclohexyl)methyl)(4-(1-isopropyl-1H-pyrazol-4-yl)pyridin-2-yl)carbamoyl)cyclohexyl 3-(methylsulfonyl)azetidine-1-carboxylate]
11 | ≤ 250 | COc1ccc([C@H]2CC[C@H](CN(c3cccc(-c4cnn(C(C)C)c4)c3)C(=O)[C@H]3CC[C@H](NC(=O)CO)CC3)CC2)cc1C [Compound 26.12, trans-4-(2-Hydroxyacetamido)-N-(3-(1-isopropyl-1H-pyrazol-4-yl)phenyl)-N-((trans-4-(4-methoxy-3-methylphenyl)cyclohexyl)methyl) cyclohexanecarboxamide]
12 | ≥ 1000 | CCCCCOC(=O)[C@H]1CC[C@H](C(=O)N(C[C@H]2CC[C@H](c3ccc(OC)c(C)c3)CC2)c2cccc(-c3cnn(C4CC4)c3)c2)CC1 [Compound 22.03, trans-Pentyl 4-((3-(1-cyclopropyl-1H-pyrazol-4-yl)phenyl)((trans-4-(4-methoxy-3-methylphenyl)cyclohexyl)methyl)carbamoyl) cyclohexanecarboxylate]
13 | ≤ 250 | CNC(=O)O[C@H]1CC[C@H](C(=O)N(C[C@H]2CC[C@H](c3ccc(OC)c(C)c3)CC2)c2cccc(-c3coc(C4CC4)n3)c2)CC1 [Compound 2.06, trans-4-((3-(2-Cyclopropyloxazol-4-yl)phenyl)((trans-4-(4-methoxy-3-methylphenyl)cyclohexyl)methyl)carbamoyl)cyclohexyl) methylcarbamate]
14 | ≤ 250 | COc1ccc([C@H]2CC[C@H](CN(c3cccc(-c4cnc(C5CC5)s4)c3)C(=O)[C@H]3CC[C@H](NC(=O)C[S+](C)[O-])CC3)CC2)cc1C (stereo partly drawn) [Compound 31.11, trans-N-(3-(2-Cyclopropylthiazol-5-yl)phenyl)-N-((trans-4-(4-methoxy-3-methylphenyl)cyclohexyl)methyl)-4-(2-(methylsulfinyl)acetamido) cyclohexanecarboxamide]
15 | ≤ 250 | COc1ccc([C@H]2CC[C@H](CN(c3cccc(-c4coc(C(C)C)n4)c3)C(=O)[C@H]3CC[C@H](OC(=O)NCCO)CC3)CC2)cc1C [Compound 6.47, trans-4-((3-(2-Isopropyloxazol-4-yl)phenyl)((trans-4-(4-methoxy-3-methylphenyl)cyclohexyl)methyl)carbamoyl)cyclohexyl (2-hydroxyethyl) carbamate]
16 | ≤ 250 | COc1ccc([C@H]2CC[C@H](CN(c3cccc(-c4cnn(C5CC5)c4)c3)C(=O)[C@H]3CC[C@H](OC(=O)NC(C)C)CC3)CC2)cc1C [Compound 4.05, trans-4-((3-(1-Cyclopropyl-1H-pyrazol-4-yl)phenyl)((trans-4-(4-methoxy-3-methylphenyl)cyclohexyl)methyl)carbamoyl)cyclohexyl isopropylcarbamate]
17 | ≤ 250 | COc1ccc([C@H]2CC[C@H](CN(c3cccc(-c4cnn(C5CC5)c4)c3)C(=O)[C@H]3CC[C@H](OC(=O)NCCCCN(C)C)CC3)CC2)cc1C [Compound 4.20, trans-4-((3-(1-Cyclopropyl-1H-pyrazol-4-yl)phenyl)((trans-4-(4-methoxy-3-methylphenyl)cyclohexyl)methyl)carbamoyl)cyclohexyl (4-(dimethylamino)butyl)carbamate]
18 | ≤ 250 | COc1ccc([C@H]2CC[C@H](CN(c3cccc(-c4cnc(C5CC5)s4)c3)C(=O)[C@H]3CC[C@H](NC(=O)C(C)O)CC3)CC2)cc1C (stereo partly drawn) [Compound 27.01, trans-N-(3-(2-Cyclopropylthiazol-5-yl)phenyl)-4-(2-hydroxypropanamido)-N-((trans-4-(4-methoxy-3-methylphenyl)cyclohexyl)methyl) cyclohexanecarboxamide]
19 | ≤ 250 | COc1ccc([C@H]2CC[C@H](CN(c3cccc(-c4coc(C(C)C)n4)c3)C(=O)[C@H]3CC[C@H](CC(=O)O)CC3)CC2)cc1C [Compound 21.08, 2-(trans-4-((3-(2-lsopropyloxazol-4-yl)phenyl)((trans-4-(4-methoxy-3-methylphenyl)cyclohexyl)methyl)carbamoyl)cyclohexyl)acetic acid]
20 | ≤ 250 | COc1ccc([C@H]2CC[C@H](CN(c3cccc(-c4cnc(C5CC5)s4)c3)C(=O)[C@H]3CC[C@H](c4nnn[nH]4)CC3)CC2)cc1C [Compound 33, trans-N-(3-(2-Cyclopropylthiazol-5-yl)phenyl)-N-((trans-4-(4-methoxy-3-methylphenyl)cyclohexyl)methyl)-4-(2H-tetrazol-5-yl)cyclohexanecarboxamide]
